The values that follow come from BindingDB's records for doi:10.1021/jm030921v (Uppsala University, 2004).

As a reminder, the Ki is a measure of affinity in units of concentration, obtained from inhibition or displacement. A high value points to a looser hold on the target.

SMILES strings stand for the structures. Numbered stars: 1 amine (or outer) side, 2 acyl side, 3 side chain; on linkers, the order of the positions; unused ones are H or OH. Bridge positions count the residues as written; N and C are the ends. Peptide text beside a SMILES is read from it. CH2 = C([*:1])[*:2] Some results are limits rather than exact numbers.

This assay concerns the target Type-2 angiotensin II receptor (Sus scrofa). In words: Binding affinity for Angiotensin II receptor type 2 using [125I]- Ang II in pig uterus myometrium.
On to `CC(C)[C@H](NC(=O)[C@H](C)NC(=O)[C@@H](N)CC(=O)O)C(=O)Nc1ccc2c(c1)CN(CC(=O)N[C@@H](Cc1cnc[nH]1)C(=O)N1CCC[C@H]1C(=O)N[C@@H](Cc1ccccc1)C(=O)O)C(=O)[C@H](Cc1ccc(O)cc1)N2` [Angiotensin II analogue], for which the inhibitory constant (Ki) was > 10 µM.

Regarding `CC(C)[C@H](NC(=O)[C@H](CCCNC(=N)N)NC(=O)[C@@H](N)CC(=O)O)C(=O)N[C@@H](Cc1ccc(O)cc1)C(=O)Nc1ccc2c(c1)CN(CC(=O)N[C@@H](Cc1ccccc1)C(=O)O)C(=O)[C@H](Cc1cnc[nH]1)N2` [Angiotensin II analogue], the Ki was > 10 µM. Take `N=C(N)NCCC[C@H](NC(=O)[C@@H](N)CC(=O)O)C(=O)Nc1ccc2c(c1)CN(CC(=O)N[C@@H](Cc1cnc[nH]1)C(=O)N1CCC[C@H]1C(=O)N[C@@H](Cc1ccccc1)C(=O)O)C(=O)[C@H](Cc1ccc(O)cc1)N2` [Angiotensin II analogue]: the Ki is > 10 µM.

As to `N=C(N)NCCC[C@H](NC(=O)[C@@H](N)CC(=O)O)C(=O)N[C@H]1CSCSC[C@@H](C(=O)N[C@@H](Cc2cnc[nH]2)C(=O)N2CCC[C@H]2C(=O)N[C@@H](Cc2ccccc2)C(=O)O)NC(=O)[C@H](Cc2ccc(O)cc2)NC1=O` [Angiotensin II analogue] (H-DRCYCHPF-OH; linker 3-5 via CH2), the Ki was 0.00062 µM.
